This note sets out measurements from ChEMBL document CHEMBL1201862, “PubChem BioAssay data set” (2004).

Some test systems named below: 786-0; MCF7; NCI-H226; CAKI-1; COLO 205; EKVX; UO-31; NCI-H522; T47D; SW-620; OVCAR-3; KM12; A549; HL-60; MDA-N; M14; HCT-116; SF-539; SK-MEL-2; OVCAR-4.
Holding throughout (assay): inhibition of tumour cell growth, NCI panel, 48 h

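Protocol summary: plate cells (96-well), add compound at 5 concentrations, incubate 48 h, interpolate endpoints linearly. Here, GI50 denotes the concentration required for 50% inhibition of growth.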 Active and inactive are the calls of the source. Cut-off read from the data, not from the text of the source: active = GI50 up to about 1.1 µM and inactive = higher.

Regarding `O=c1oc2cc(O)ccc2c(O)c1C(c1ccccc1F)c1c(O)c2ccc(O)cc2oc1=O`, the GI50 is > 100 µM (inactive) with 786-0; 45.2 µM (inactive) with MCF7; > 100 µM (inactive) in the experiment with NCI-H226; > 100 µM (inactive) with CAKI-1; > 100 µM (inactive) in the experiment on COLO 205; > 100 µM (inactive) in the experiment on EKVX. Moreover, the GI50 in the experiment on UO-31 was > 100 µM (inactive); in the experiment on NCI-H522, > 100 µM (inactive); in the experiment with T47D, > 100 µM (inactive); with SW-620 it was 38.4 µM (inactive); in the experiment with OVCAR-3, > 100 µM (inactive); in the experiment with KM12, 78.3 µM (inactive). The GI50 is > 100 µM (inactive) in the experiment on A549; 17.9 µM (inactive) in the experiment with HL-60; 61.2 µM (inactive) in the experiment with MDA-N; > 100 µM (inactive) in the experiment on M14; 48.4 µM (inactive) with HCT-116; 31.7 µM (inactive) in the experiment with SF-539. The GI50 in the experiment with SK-MEL-2 is 45 µM (inactive).
With `CCn1c(-c2cc(OC)cc(OC)c2)nc2c1C(=O)c1ccccc1C2=O`, the GI50 was 45.4 µM (inactive) with 786-0; > 100 µM (inactive) in the experiment on MCF7; > 100 µM (inactive) with NCI-H226; > 100 µM (inactive) with COLO 205; > 100 µM (inactive) in the experiment with EKVX; 6.46 µM (inactive) with NCI-H522. Moreover, the GI50 with T47D, with SW-620, in the experiment with OVCAR-3, in the experiment with KM12, in the experiment on A549 and in the experiment with HL-60 was > 100 µM (inactive) each time. Besides, the GI50 with MDA-N, with M14, in the experiment on HCT-116, in the experiment with SF-539 and in the experiment on OVCAR-4 was > 100 µM (inactive) throughout.
As to `O=C1C[C@@]23CCC4(CC2=CCC[C@H]3O1)OCCO4`, the GI50 in the experiment with 786-0, in the experiment on MCF7, in the experiment with NCI-H226, in the experiment on CAKI-1, with COLO 205 and in the experiment with EKVX was > 100 µM (inactive) throughout. Also, the GI50 with NCI-H522, with T47D, in the experiment with SW-620, in the experiment with OVCAR-3, in the experiment on KM12 and in the experiment on A549 was > 100 µM (inactive) in each case. Further, the GI50 in the experiment on HL-60, with MDA-N, in the experiment with M14, in the experiment with HCT-116, in the experiment with SF-539 and in the experiment on OVCAR-4 was > 100 µM (inactive) in each case. For the same compound, the GI50 with SK-MEL-2 is > 100 µM (inactive).
On to `C=C1C(=O)OC2CC3(C)CCCC(C)C3=CC12` (centres undefined), for which the GI50 with 786-0 is 2.79 µM (inactive); in the experiment on MCF7, 1.78 µM (inactive); in the experiment on NCI-H226 it was 13.2 µM (inactive); with CAKI-1 it was 3.09 µM (inactive); in the experiment on COLO 205, 1.3 µM (inactive); with EKVX, 5.3 µM (inactive). In addition, the GI50 in the experiment with UO-31 was 3.18 µM (inactive); with NCI-H522 it was 1.51 µM (inactive); in the experiment on T47D, 2.88 µM (inactive); in the experiment on SW-620, 2.16 µM (inactive); in the experiment with KM12, 12.6 µM (inactive); in the experiment on A549, 12.6 µM (inactive). The GI50 is 0.469 µM (active) in the experiment on HL-60; 3.18 µM (inactive) in the experiment on MDA-N; 3.56 µM (inactive) in the experiment with M14; 3.91 µM (inactive) with HCT-116; 1.35 µM (inactive) with SF-539; 4.03 µM (inactive) with OVCAR-4. Further, the GI50 in the experiment on SK-MEL-2 was 10.4 µM (inactive).
Turning to `CC(CC(C)[C@H]1CCC2[C@H]3C(CC(=O)[C@@]21C)[C@@]1(C)CCC(O)C[C@H]1C[C@@H]3O)C(=O)O` (some centres undefined), the GI50 is > 100 µM (inactive) in the experiment on 786-0; 92.3 µM (inactive) in the experiment with MCF7; > 100 µM (inactive) in the experiment on NCI-H226; > 100 µM (inactive) in the experiment on CAKI-1; > 100 µM (inactive) in the experiment with COLO 205; > 100 µM (inactive) in the experiment with EKVX. Also, the GI50 with UO-31 is 58.9 µM (inactive); in the experiment on NCI-H522, > 100 µM (inactive); with T47D it was > 100 µM (inactive); in the experiment with SW-620, 87.1 µM (inactive); with KM12, > 100 µM (inactive); with A549, > 100 µM (inactive). Further, the GI50 in the experiment with HL-60 was 46.8 µM (inactive); in the experiment on MDA-N, > 100 µM (inactive); in the experiment on M14 it was > 100 µM (inactive); in the experiment with HCT-116 it was > 100 µM (inactive); in the experiment on SF-539, > 100 µM (inactive); in the experiment with OVCAR-4, > 100 µM (inactive). The GI50 with SK-MEL-2 was > 100 µM (inactive).
Regarding `COc1ccc(/C=C2\N=C3NC(=O)C(N4CCCCC4)=C(N)N3C2=O)cc1`, the GI50 in the experiment on 786-0, in the experiment with MCF7, in the experiment on NCI-H226, with CAKI-1, with COLO 205 and in the experiment on EKVX was > 100 µM (inactive) each time. Moreover, the GI50 with UO-31, in the experiment with NCI-H522, with T47D, in the experiment on SW-620, in the experiment on KM12 and with A549 was > 100 µM (inactive) each time. The GI50 is 25.9 µM (inactive) in the experiment with HL-60; > 100 µM (inactive) in the experiment with MDA-N; > 100 µM (inactive) with M14; > 100 µM (inactive) in the experiment on HCT-116; > 100 µM (inactive) in the experiment with SF-539; > 100 µM (inactive) in the experiment on OVCAR-4.
Take `COc1cc(OC)c(OC)cc1/C=C/c1nc2ccccc2s1`: the GI50 was > 100 µM (inactive) in the experiment with 786-0; 82.4 µM (inactive) with MCF7; > 100 µM (inactive) in the experiment on NCI-H226; > 100 µM (inactive) in the experiment on COLO 205; 69.7 µM (inactive) in the experiment with EKVX; 47.2 µM (inactive) with UO-31. The GI50 was 40.6 µM (inactive) in the experiment with NCI-H522; 8.45 µM (inactive) with T47D; > 100 µM (inactive) in the experiment with SW-620; > 100 µM (inactive) in the experiment with OVCAR-3; > 100 µM (inactive) in the experiment on KM12; > 100 µM (inactive) in the experiment on A549. The GI50 in the experiment with HL-60 is 5.52 µM (inactive); with MDA-N, 17.5 µM (inactive); with M14, 17.6 µM (inactive); in the experiment with HCT-116, 25.2 µM (inactive); in the experiment on SF-539, > 100 µM (inactive); in the experiment on SK-MEL-2, > 100 µM (inactive).
Consider `CC(=O)OCC1OC(n2c(-c3ccccc3)c(C(C)=O)c(-c3ccc(Cl)cc3)c(C#N)c2=S)C(OC(C)=O)C(OC(C)=O)C1OC(C)=O` (centres undefined), for which the GI50 in the experiment on 786-0 was > 100 µM (inactive); with MCF7, > 100 µM (inactive); with NCI-H226, > 100 µM (inactive); with CAKI-1 it was 99.8 µM (inactive); with COLO 205 it was > 100 µM (inactive); in the experiment on EKVX, > 100 µM (inactive). Further, the GI50 in the experiment on NCI-H522, in the experiment with T47D, with SW-620, with OVCAR-3, in the experiment with KM12 and with A549 was > 100 µM (inactive) throughout. In addition, the GI50 in the experiment with HL-60 is > 100 µM (inactive); in the experiment on MDA-N, 62.8 µM (inactive); in the experiment on M14 it was > 100 µM (inactive); in the experiment with HCT-116 it was 83.2 µM (inactive); in the experiment on SF-539 it was > 100 µM (inactive); with OVCAR-4 it was 83.8 µM (inactive). Moreover, the GI50 in the experiment with SK-MEL-2 is < 0.01 µM (active).
Take `CCOC1OC(COC(=O)C(C)(C)C)C(O)CC1n1cc(C)c(=O)[nH]c1=O` (centres undefined): the GI50 in the experiment with 786-0, with MCF7, with NCI-H226, in the experiment on CAKI-1, with COLO 205 and in the experiment with EKVX was > 100 µM (inactive) throughout. Besides, the GI50 in the experiment on UO-31, in the experiment on NCI-H522, in the experiment with T47D, in the experiment with SW-620, with OVCAR-3 and in the experiment with KM12 was > 100 µM (inactive) throughout. Further, the GI50 in the experiment on A549, in the experiment on MDA-N, with M14, in the experiment on HCT-116, with SF-539 and in the experiment with OVCAR-4 was > 100 µM (inactive) throughout. For the same compound, in the experiment on SK-MEL-2, the GI50 is > 100 µM (inactive).
As for `CCOC(CCNCC(OCC)OCC)OCC`, the GI50 in the experiment on 786-0, in the experiment on MCF7, with NCI-H226, in the experiment on CAKI-1, with COLO 205 and in the experiment with EKVX was > 10 µM (inactive) each time. In addition, the GI50 in the experiment on NCI-H522, in the experiment with T47D, in the experiment on OVCAR-3, in the experiment with KM12, in the experiment on A549 and in the experiment on HL-60 was > 10 µM (inactive) each time. In addition, the GI50 in the experiment with MDA-N, in the experiment on M14, in the experiment with HCT-116, in the experiment with SF-539, with OVCAR-4 and in the experiment on SK-MEL-2 was > 10 µM (inactive) throughout.
In the case of `CCN(CC)c1ccc2cc(-c3nc4ccccc4n3C)c(=O)oc2c1`, the GI50 with 786-0 was 0.381 µM (active); with MCF7, 0.667 µM (active); in the experiment with NCI-H226, 0.302 µM (active); in the experiment with CAKI-1 it was 0.288 µM (active); in the experiment with COLO 205, 0.315 µM (active); in the experiment with UO-31, 3.52 µM (inactive). Besides, the GI50 in the experiment on NCI-H522 was 0.205 µM (active); with T47D it was > 100 µM (inactive); in the experiment on SW-620 it was 0.163 µM (active); in the experiment on OVCAR-3, 0.24 µM (active); in the experiment on KM12, 0.571 µM (active); with A549, 0.578 µM (active). Further, the GI50 in the experiment on HL-60 is 0.206 µM (active); with MDA-N, 0.0259 µM (active); with M14, 0.355 µM (active); in the experiment with HCT-116, 0.204 µM (active); with SF-539, 0.222 µM (active); in the experiment with OVCAR-4, > 100 µM (inactive). Besides, in the experiment on SK-MEL-2, the GI50 is 0.255 µM (active).
